Measurements as given in US8124054B2, “Chelating agent conjugated α-MSH peptide derivatives, preparation method thereof and composition for diagnosis and treatment of melanoma comprising the same as an active ingredient” (Korea Atomic Energy Research Institute, priority 2008, dated 2012).

System: B16/F1 murine melanoma
Type: in vivo, C57BL mice
Method: To the nape of the neck of 12 female C57BL mice, each weighing 18˜23 g, B16/F1 murine melanoma cells were injected at a density of 10^6 cells/mL. Two weeks later, the tumor was developed to a size of 0.5˜1 g. The ^177Lu-DOTA-Gly-Cyclic(Dap-Gln-His-dPhe-Arg-Trp-Asp)-Lys-Pro-Val-CONH2 prepared in Example 13 was injected to the mice at a dose of 5 μCi (1.6 μg in 100 μl of saline). 2, 4 and 24 hours later, the mice were sacrificed before organ excision.
For comparison for target selectivity, the mice that were injected with 2 μg of an unlabeled peptide 2 hours after the first injection and then with the radiolabeled peptide were used as a control.
The excised organs were analyzed for radioactivity using a gamma counter (1470 WIZARD Automatic Gamma Counter, PerkinElmer) and the results are plotted in FIG. 7.

Substance: ^177Lu-labeled DOTA-Gly-cyclic(Dap-Glu-His-dPhe-Arg-Trp-Asp)-Lys-Pro-Val-CONH2 [Example 13]
- receptor selectivity (concluded from tumor uptake with and without unlabeled peptide): high receptor selectivity
- tumor uptake in control injected with 2 μg of unlabeled peptide, compared with experimental groups (mouse, in vivo): lower tumor uptake
